Source: patent US20090234018A1, “Non-Standard Amino Acid Conjugates of Amphetamine and Processes for Making and Using the Same” (priority 2006, published 2009)
Where two headings read alike, the source gives them in different places.

How the values were obtained:
[1] = Oral PK study of Lys-Amp, hArg-Amp, Orn-Amp and Cit-Amp (Example 9); settings: rat; for % Tmax: relative to Lys-Amp
[2] = rat, oral; relative to hArg-Amp
[3] = Oral gavage PK study of Lys-Amp and hArg-Amp, plasma d-amphetamine by ELISA (Example 7); settings: rat, relative to Lys-Amp
[4] = Intranasal PK study of d-amphetamine, hArg-Amp, Orn-Amp (Example 10); settings: rat; for % Tmax: relative to d-amp
[5] = Intravenous PK study of d-amphetamine, hArg-Amp, Orn-Amp (Example 11); settings: rat, relative to d-amp
[6] = PK of d-amphetamine after parenteral (intranasal, intravenous) administration of hArg-Amp (Example 1)
[7] = Average of 4 oral PK studies of Lys-Amp and hArg-Amp (Example 7, Table 3); settings: average of 4 oral studies, n=20; relative to Lys-Amp
[8] = plasma d-amphetamine, given in minutes

Q: Which “Tmax compared to Lys-Amp” value [1] does the source give for “1-citrulline-d-amphetamine hydrochloride [Cit-Amp]” here?
A: Its value is “significantly shifted the Tmax”.

Q: And the Tmax [1, 8]?
A: Its Tmax is 15 m.

Q: And the “% Tmax” value [1]?
A: The value was 25%.

Q: Which “% Tmax” value [2] does the source give for `C[C@@H](Cc1ccccc1)NC(=O)[C@@H](N)CCCCN=C(N)N.Cl.Cl` [hArg-Amp, l-homoarginine-d-amphetamine dihydrochloride] here?
A: Its value is 100%.

Q: And the “% Tmax” value [1]?
A: Its value is 200%.

Q: What about the “% Tmax” value [3] of the same molecule?
A: Its value is 133%.

Q: What about the “% Tmax” value [4] of the same molecule?
A: Its value is 1600%.

Q: And the “% Tmax” value [5]?
A: The value was 100%.

Q: What about the release of amphetamine [6] of the same molecule?
A: Its release of amphetamine is less than 50%.

Q: And the “% Tmax” value [7]?
A: Its value is 400%.

Q: With `C[C@H](N)Cc1ccccc1` [d-amp, d-amphetamine] as the molecule, how does the Tmax [4, 8] read?
A: Its Tmax is 15 m.

Q: What about the “% Tmax” value [4] of the same molecule?
A: The value was 100%.

Q: Which results are given for “l-lysine-d-amphetamine [Lys-Amp, reference compound]”?
A: Cmax ([1]; plasma d-amphetamine): 59 ng/mL; % Tmax [1]: 100%; % Tmax [3]: 100%; % Tmax [7]: 100%
